The values below are quoted from earlier work in patent publication US11291812B2, “Sinus delivery of sustained release therapeutics” (Intersect ENT, Inc., priority 2003, dated 2022).

In this data set the test system is sinusitis. Particulars: ampicillin delivered from a poly(lactic-co-glycolic)acid (PLGA) film placed in rabbit maxillary sinus.

Each structure is given as a SMILES string.

For `CC1(C)S[C@@H]2[C@H](NC(=O)[C@H](N)c3ccccc3)C(=O)N2[C@H]1C(=O)O` [ampicillin], the “clinical signs of sinusitis” value was “improved”.
